Counter-ions that a name gives are not always drawn. Like-named read-outs stand apart in the source and are kept apart here.
Columns and labels:
serotonin transporter = target: T1, serotonin transporter (Rattus norvegicus, UniProt P31652); assay: 3H-paroxetine displacement from rat frontal cortical membranes (serotonin transporter affinity); type: binding
T1 construct: displace ^3H-paroxetine from male rat frontal cortical membranes; from tissue; host or cells: male rat frontal cortex membranes

human 5-HT1A receptors = target: T2, human 5-HT1A receptors (Homo sapiens, UniProt P08908); assay: [3H] 8-OHDPAT displacement from 5-HT1A receptor in transfected CHO cells; type: binding
T2 construct: expressed in transfected cells; host or cells: CHO cells (stably transfected)
T2 sequence (P08908 1-422): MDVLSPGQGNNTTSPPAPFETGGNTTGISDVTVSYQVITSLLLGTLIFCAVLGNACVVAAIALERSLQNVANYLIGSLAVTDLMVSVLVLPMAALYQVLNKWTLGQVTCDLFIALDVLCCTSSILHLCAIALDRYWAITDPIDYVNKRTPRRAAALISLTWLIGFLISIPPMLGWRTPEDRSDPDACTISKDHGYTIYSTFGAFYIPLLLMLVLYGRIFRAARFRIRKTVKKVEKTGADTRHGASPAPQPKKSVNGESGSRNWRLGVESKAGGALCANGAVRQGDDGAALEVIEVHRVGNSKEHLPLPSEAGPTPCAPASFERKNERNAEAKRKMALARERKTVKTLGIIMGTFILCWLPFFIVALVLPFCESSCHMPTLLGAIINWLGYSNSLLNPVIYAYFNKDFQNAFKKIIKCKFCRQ
Text: High affinity for the serotonin 5-HT1A receptor was established by testing the claimed compound's ability to displace [^3H] 8-OHDPAT (dipropylaminotetralin) from the 5-HT1A serotonin receptor following a modification of the procedure of Hall et al., J. Neurochem. 44, 1685 (1985) which utilizes CHO cells stably transfected with human 5-HT1A receptors.

[1] = target: T3, cloned human 5-HT1A receptors (Homo sapiens, UniProt P08908); assay: 35S-GTPγS binding assay, antagonist activity at 5-HT1A receptors; type: biochemical; settings: reversal of standard agonist 8-OHDPAT; for IC50: read-out: 5-HT1A Function IC50; for 5-HT1A Function Imax (maximum inhibitory effect): value in parentheses
T3 construct: expressed in transfected cells
T3 sequence (P08908 1-422): T2 sequence (P08908 1-422)
Experimental: Antagonist activity at 5-HT1A receptors was established by using a ^35S-GTPγS binding assay similar to that used by Lazareno and Birdsall (Br. J. Pharmacol. 109: 1120, 1993), in which the test compound's ability to affect the binding of ^35S-GTPγS to membranes containing cloned human 5-HT1A receptors was determined. Agonists produce an increase in binding whereas antagonists produce no increase but rather reverse the effects of the standard agonist 8-OHDPAT. The test compound's maximum inhibitory effect is represented as the Imax, while its potency is defined by the IC50.

[2] = 3H-paroxetine, male rat frontal cortical membranes, read-out: 5-HT Transporter Affinity KI

T1 sequence (P31652 whole entry): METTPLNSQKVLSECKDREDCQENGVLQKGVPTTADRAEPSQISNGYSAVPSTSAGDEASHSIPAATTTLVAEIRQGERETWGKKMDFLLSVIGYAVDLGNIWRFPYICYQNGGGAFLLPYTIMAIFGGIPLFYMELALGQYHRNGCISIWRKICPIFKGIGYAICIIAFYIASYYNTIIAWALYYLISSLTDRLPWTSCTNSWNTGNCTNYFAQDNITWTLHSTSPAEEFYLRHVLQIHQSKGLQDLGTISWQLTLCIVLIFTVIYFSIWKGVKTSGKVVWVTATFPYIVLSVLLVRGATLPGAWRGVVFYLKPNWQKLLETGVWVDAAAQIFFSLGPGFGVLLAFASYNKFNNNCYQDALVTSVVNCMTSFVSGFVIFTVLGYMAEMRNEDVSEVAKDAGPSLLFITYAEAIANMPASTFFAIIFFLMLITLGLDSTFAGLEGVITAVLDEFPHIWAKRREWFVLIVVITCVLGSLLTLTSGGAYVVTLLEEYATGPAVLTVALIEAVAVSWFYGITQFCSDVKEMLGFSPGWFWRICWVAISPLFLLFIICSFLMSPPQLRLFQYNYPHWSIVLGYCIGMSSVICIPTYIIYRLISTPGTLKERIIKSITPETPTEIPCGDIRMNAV

SMILES | Ki (serotonin transporter; [2]) [nM] | Ki (human 5-HT1A receptors) [nM] | IC50 [1] [nM] | 5-HT1A Function Imax (maximum inhibitory effect) [1] | melting point [°C] | Ki (serotonin transporter) [nM]
Cc1cc2c3c(ccc2o1)OC[C@H](CN1CC=C(c2c[nH]c4ccccc24)CC1)O3 [Example 1] | 185 | 14.1 | 241 | 62.0 |  | 
Cc1cc2ccc3c(c2o1)OC(CN1CC=C(c2c[nH]c4ccccc24)CC1)CO3 (stereo not shown) [Example 1] |  |  |  |  | 198 to 200 | 
C1=C(c2c[nH]c3ccccc23)CCN(CC2COc3ccc4c(c3O2)CCO4)C1 (stereo not shown) [Example 2, 3-{1-[2,3,8,9-Tetrahydrofuro[3,2-f][1,4]benzodioxin-2-ylmethyl]-1,2,3,6-tetrahydro-4-pyridinyl}-1H-indole] |  | 46 | 264 | 66.0 | 207 to 209 | 34
C1=C(c2c[nH]c3ccccc23)CCN(CC2COc3ccc4c(c3O2)CCCO4)C1 (stereo not shown) [Example 4, 3-{1-[2,3,9,10-Tetrahydro-8H-[1,4]dioxino[2,3-f]chromen-2-ylmethyl]-1,2,3,6-tetrahydro-4-pyridinyl}-1H-indole] |  | 30.4 | 868 | 100 | 186 to 187 | 8.5
C1=C(c2c[nH]c3ccccc23)CCN(CC2COc3ccc4occc4c3O2)C1 (stereo not shown) [Example 3, 3-{1-[2,3-Dihydrofuro[3,2-f][1,4]benzodioxin-2-ylmethyl]-1,2,3,6-tetrahydropyridin-4-yl}-1H-indole] | 115 | 19.6 | 19 | 61.0 | 208 to 209 | 
Fc1ccc2[nH]cc(C3=CCN(CC4COc5ccc6c(c5O4)CCCO6)CC3)c2c1 (stereo not shown) (as salt: salt) [Example 5, 5-Fluoro-3-{1-[2,3,9,10-tetrahydro-8H-[1,4]dioxino[2,3-f]chromen-2-ylmethyl]-1,2,3,6-tetrahydro-4-pyridinyl}-1H-indole] |  |  |  |  | 205 to 206 | 
Fc1ccc2[nH]cc(C3=CCN(CC4COc5ccc6c(c5O4)CCCO6)CC3)c2c1 (stereo not shown) [Example 5, 5-Fluoro-3-{1-[2,3,9,10-tetrahydro-8H-[1,4]dioxino[2,3-f]chromen-2-ylmethyl]-1,2,3,6-tetrahydro-4-pyridinyl}-1H-indole] |  | 29.4 | 347 | 100 |  | 10
